“Also recorded” adds a separate entry of the source.
What was measured:
[1] = test system: Pseudomonas aeruginosa strain K (PAK) in bone marrow-derived macrophages (BMDMs); test: In vitro phagocytosis and bacterial killing assay, BMDMs; assay type: cell-based; conditions: for phagocytic activity of BMDMs (intracellular PAK CFU, confocal): 100 μg/ml pretreated 1 h, PAK MOI 50 for 1 h
Method: For immunofluorescence-based measurement of phagocytosis and clearance, BMDMs were grown on glass coverslips in 24-well plates. The cells were infected with PAK (MOI, 50) for different time intervals and then were treated with 10 μg/ml gentamycin for 30 minutes to remove extracellular PAK attached to the cell surface. The infected cells were washed with ice-cold PBS several times, followed by fixing for 10 minutes at room temperature in methanol or 10% paraformaldehyde. The cells were stained with anti-Pseudomonas antibody (Abcam) and then were incubated with goat anti-rabbit IgG secondary antibody conjugated with Alexa Fluor 488. Slides were mounted using the mounting medium ProLong™ Gold antifade reagent with the DNA-binding blue dye DAPI (Thermo Scientific™) and were imaged with a confocal microscope (Zeiss LSM 800, Germany).
(§1) For CFU counting-based phagocytosis and bacterial killing assay, PAK was cultured at 37° C. overnight with continuous shaking and was resuspended in PBS. The BMDMs or THP-1 cells were incubated with PAK (MOI, 50) for different time intervals at 37° C. The cells were further cultured in the medium containing 10 μg/ml gentamycin for 30 minutes and then were lysed by 0.5% SDS. The diluted aliquots were spread on LB agar plates, and CFU was counted after incubation of the plates overnight at 37° C.
To evaluate whether PLAG accelerates phagocytosis of PAK by macrophages in vitro systems, bone marrow-derived macrophages (BMDMs) were pretreated with PLAG, and then infected with PAK (MOI, 50) for different lengths of time. Gentamycin ([…]) was treated to the cells for 30 minutes to remove extracellular bacteria. Immunofluorescence micrographs of BMDMs incubated with PAK confirmed that PLAG accelerated not only engulfment of bacteria, but also clearance of bacteria (FIG. 5A). […] PAK is recognized by toll-like receptors 4 and 5 and PAK is phagocytosed by co-cultured macrophage at 2 hrs and sustained for 4 hrs. In the PLAG treated cells, phagocytosis of PAK starts at 30 min and maximized at 1 hr and the invading PAK is cleared at 2 hrs.
For the CFU counting-based phagocytosis assay, PAK was cultured at 37° C. overnight with continuous shaking and then resuspended in PBS. BMDMs were pretreated with 100 μg/ml of PLAG or PLH for 1 hour. The cells were infected with PAK (multiplicity of infection [MOI], 50) for 1 h, and then treated with 10 μg/ml gentamycin for 30 minutes to remove extracellular PAK attached to the cell surface. Then, the cells were lysed with 0.5% SDS and serially diluted in PBS to spread on LB agar plates. CFU counts were performed after overnight incubation at 37° C.
For the immunofluorescence-based measurement of phagocytosis and clearance, BMDMs were grown on glass coverslips in 24-well plates. The cells were infected with PAK (MOI, 50) for 1 hour and then treated with 10 μg/ml gentamycin for 30 minutes to remove extracellular PAK attached to the cell surface. The infected cells were washed several times with ice-cold PBS and then fixed for 10 minutes at room temperature in methanol or 10% paraformaldehyde. The cells were then incubated with anti-Pseudomonas primary and Alexa Fluor 488-conjugated goat anti-rabbit IgG secondary antibodies. The coverslips were mounted on slides with ProLong Gold antifade reagent with DAPI (Thermo Fisher Scientific) and imaged with a confocal microscope (LSM 800; Zeiss, Germany). […]

PAK in THP-1 cells = test: In vitro phagocytosis of PAK, THP-1 cells; assay type: cell-based, human; conditions: 1 hour after infection
Method: as §1

[2] = test system: Pseudomonas aeruginosa (PAK) in BALF; test: PAK infection of mice, CFU determination in BALF; assay type: in vivo; conditions: PAK-induced pneumonia mice, BALF 2 hours after infection
Method: Pseudomonas aeruginosa (PAK) was grown overnight in LB broth at 37° C. with agitation, and then harvested by centrifugation at 13,000×g for 2 min. The pellet was diluted to yield 1×10^5 colony-forming unit (CFU) per 20 μL of phosphate-buffered saline (PBS) as determined by the optical density at 600 nm. The diluted bacteria were administered to BALB/c mice by intranasal injections. Bronchoalveolar lavage fluid (BALF) samples were then collected 2 hours after infection and serially diluted 1:1,000-1:10,000 with PBS and incubated overnight at 37° C. on LB agar plates. The number of viable bacteria in BALF samples were determined by counting the numbers of colonies formed on the plates.

[3] = test system: LPS-induced acute lung injury; test: LPS-induced acute lung injury (ALI) in mice; assay type: in vivo; conditions: for number of neutrophils in BALF: LPS-treated mice, co-treatment
[4] = PAK MOI 50, PLAG pretreated BMDMs

Row | SMILES | phagocytic activity of BMDMs (intracellular PAK CFU, confocal) [1] | phagocytosis of PAK by THP-1 cells (PAK in THP-1 cells) | bacterial clearance of PAK in BALF [2] | number of neutrophils in BALF [3] | invading PAK is cleared [1, 4] | phagocytosis of PAK maximized [1, 4] | phagocytosis of PAK starts [1, 4] | inflammatory cell infiltration into the alveolar space (H&E) ([3]; 16 hours after LPS, PLAG 250 mg/kg oral) | mRNA expression of MIP-2, S100A8, S100A9 increased by LPS ([3]; BALF cells, 16 hours) | Evans blue-stained albumin in lungs ([3]; LPS 25 mg/kg intranasal, PLAG 250 mg/kg oral) | MPO activity of isolated lung tissue ([3]; vs LPS alone, PLAG 250 mg/kg oral) | neutrophil migration, PLAG treatment alone ([3]; without LPS)
1 | CCCCC/C=C\C/C=C\CCCCCCCC(=O)OC(CO)COC(=O)CCCCCCCCCCCCCCC (stereo not shown) [PLH, palmitic linoleic hydroxyl glycerol, reference compound] | little effect | little effect | didn't; also recorded: did not | no effect | – | – | – | – | – | – | – | –
2 | CCCCC/C=C\C/C=C\CCCCCCCC(=O)OC(COC(C)=O)COC(=O)CCCCCCCCCCCCCCC (racemic) [PLAG, 1-palmitoyl-2-linoleoyl-3-acetylglycerol] | most advanced phagocytosis; also recorded: most effectively enhanced | advanced phagocytosis | showed the bacterial clearance activity; also recorded: effectively eliminated | more rapidly return to homeostasis; also recorded: dramatically reduced | 2 h | 1 h | 30 min | considerably reduced | significantly attenuated | significantly decreased | significantly decreased | no effect

Reference: patent publication US20220339135A1, “COMPOSITIONS AND METHODS FOR MODULATING AN INFLAMMATORY RESPONSE” (Enzychem Lifesciences Corporation, priority 2019, published 2022)
